Test results reported in US20260223850A1, “SUBSTITUTED PYRROLIDONE COMPOUND, PREPARATION METHOD THEREFOR, COMPOSITION AND APPLICATION THEREOF” (QINGDAO KINGAGROOT CHEMICAL COMPOUND CO., LTD., priority 2023, published 2026).

Tests used:
Assay type in all cases: in vivo
[1] = tested on: Echinochloa phyllopogon; experiment: Seedling stage sealing experiment for water-seeding; conditions: 120 g a.i./ha, 15 days, fresh weight control rate
In short: (§1)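 Pre-emergence spray on soil-covered seeds in moist bowls, rates 120/60/30/15 g a.i./ha, n = 3. Fresh-weight control graded 0–9 at day 15.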

[2] = tested on: Echinochloa crusgalli; experiment: as above; conditions: 120 g a.i./ha, 15 days, fresh weight control rate
[3] = tested on: Huaidao (rice cultivar); experiment: Seedling stage sealing experiment for water-seeding (crop safety); conditions: 120 g a.i./ha, 15 days, fresh weight control rate; for Huaidao (rice cultivar) plant damage level: seedling stage sealing; for Huaidao (rice cultivar) plant damage level (growth control rate): spray, seedling stage sealing for water-seeding
In short: as §1

[4] = spray, seedling stage sealing for water-seeding

Cc1cc(C)cc([C@H]2CN(C)C(=O)[C@@H]2C(=O)Nc2cnn(C(C)C)c2Cl)c1 [419′]
Echinochloa phyllopogon activity level (growth control rate) ([1]; seedling stage sealing): 9
Echinochloa crusgalli activity level (growth control rate) ([2]; seedling stage sealing): 9
Huaidao (rice cultivar) plant damage level [3]: 0

COCn1ncc(NC(=O)[C@H]2C(=O)N(C)C[C@@H]2c2cc(C)cc(C)c2)c1Cl [422′]
Echinochloa phyllopogon activity level (growth control rate) ([1]; seedling stage sealing): 9
Echinochloa crusgalli activity level (growth control rate) ([2]; seedling stage sealing): 9
Huaidao (rice cultivar) plant damage level [3]: 1 (Level 1: growth control rate less than 10%)

COCCn1ncc(NC(=O)[C@H]2C(=O)N(C)C[C@@H]2c2cc(C)cc(C)c2)c1Cl [423′]
Echinochloa phyllopogon activity level (growth control rate) ([1]; seedling stage sealing): 6 (Level 6: growth control rate greater than or equal to 70% and less than 80%)
Echinochloa crusgalli activity level (growth control rate) ([2]; seedling stage sealing): 9
Huaidao (rice cultivar) plant damage level [3]: 0

Cc1cc(C)cc([C@H]2CN(C)C(=O)[C@@H]2C(=O)Nc2cnn(C)c2I)c1 [426′]
Echinochloa phyllopogon activity level (growth control rate) ([1]; seedling stage sealing): 9
Echinochloa crusgalli activity level (growth control rate) ([2]; seedling stage sealing): 9
Huaidao (rice cultivar) plant damage level [3]: 0

Cc1cc(C)cc([C@H]2CN(C)C(=O)[C@@H]2C(=O)Nc2cnn(C)c2C(F)(F)F)c1 [427′]
Echinochloa phyllopogon activity level (growth control rate) ([1]; seedling stage sealing): 9
Echinochloa crusgalli activity level (growth control rate) ([2]; seedling stage sealing): 9
Huaidao (rice cultivar) plant damage level [3]: 2 (Level 2: growth control rate greater than or equal to 10% and less than 20%)

CCn1ncc(NC(=O)[C@H]2C(=O)N(C)C[C@@H]2c2cc(C)cc(C)c2)c1C1CC1 [432′]
Echinochloa phyllopogon activity level (growth control rate) ([1]; seedling stage sealing): 9
Echinochloa crusgalli activity level (growth control rate) ([2]; seedling stage sealing): 9
Huaidao (rice cultivar) plant damage level [3]: 0

COC(=O)c1c(NC(=O)[C@H]2C(=O)N(C)C[C@@H]2c2cc(C)cc(C)c2)cnn1C [433′]
Echinochloa phyllopogon activity level (growth control rate) ([1]; seedling stage sealing): 6 (Level 6: growth control rate greater than or equal to 70% and less than 80%)
Echinochloa crusgalli activity level (growth control rate) ([2]; seedling stage sealing): 9
Huaidao (rice cultivar) plant damage level [3]: 0

CCc1cc(C)cc([C@H]2CN(C)C(=O)[C@@H]2C(=O)Nc2cnn(C(F)F)c2Cl)c1 [438′]
Echinochloa phyllopogon activity level (growth control rate) ([1]; seedling stage sealing): 9
Echinochloa crusgalli activity level (growth control rate) ([2]; seedling stage sealing): 9
Huaidao (rice cultivar) plant damage level [3]: 2 (Level 2: growth control rate greater than or equal to 10% and less than 20%)

CCc1cc(CC)cc([C@H]2CN(C)C(=O)[C@@H]2C(=O)Nc2cnn(C)c2Cl)c1 [439′]
Echinochloa phyllopogon activity level (growth control rate) ([1]; seedling stage sealing): 9
Echinochloa crusgalli activity level (growth control rate) ([2]; seedling stage sealing): 9
Huaidao (rice cultivar) plant damage level [3]: 2 (Level 2: growth control rate greater than or equal to 10% and less than 20%)

CN1C[C@H](c2cc(Br)cc(Br)c2)[C@@H](C(=O)Nc2cnn(C)c2Cl)C1=O [440′]
Echinochloa phyllopogon activity level (growth control rate) ([1]; seedling stage sealing): 9
Echinochloa crusgalli activity level (growth control rate) ([2]; seedling stage sealing): 9
Huaidao (rice cultivar) plant damage level [3]: 0

CN1C[C@H](c2cc(Cl)cc(Cl)c2)[C@@H](C(=O)Nc2cnn(C)c2Cl)C1=O [441′]
Echinochloa phyllopogon activity level (growth control rate) ([1]; seedling stage sealing): 9
Echinochloa crusgalli activity level (growth control rate) ([2]; seedling stage sealing): 9
Huaidao (rice cultivar) plant damage level [3]: 0

CN1C[C@H](c2cc(Cl)cc(Cl)c2)[C@@H](C(=O)Nc2cnn(C(F)F)c2Cl)C1=O [442′]
Echinochloa phyllopogon activity level (growth control rate) ([1]; seedling stage sealing): 8 (Level 8: growth control rate greater than or equal to 90% and less than 100%)
Echinochloa crusgalli activity level (growth control rate) ([2]; seedling stage sealing): 8 (Level 8: growth control rate greater than or equal to 90% and less than 100%)
Huaidao (rice cultivar) plant damage level [3]: 0

CN1C[C@H](c2cc(Cl)cc(Cl)c2)[C@@H](C(=O)Nc2cnn(C)c2C2CC2)C1=O [443′]
Echinochloa phyllopogon activity level (growth control rate) [1, 4]: 8 (Level 8: growth control rate greater than or equal to 90% and less than 100%)
Echinochloa crusgalli activity level (growth control rate) [2, 4]: 9
Huaidao (rice cultivar) plant damage level (growth control rate) [3]: 0

COc1cc([C@H]2CN(C)C(=O)[C@@H]2C(=O)Nc2cnn(C(F)F)c2Cl)cc(C(F)(F)F)c1 [445′]
Echinochloa phyllopogon activity level (growth control rate) [1, 4]: 9
Echinochloa crusgalli activity level (growth control rate) [2, 4]: 9
Huaidao (rice cultivar) plant damage level (growth control rate) [3]: 0

COc1c(C(F)(F)F)ccc([C@H]2CN(C)C(=O)[C@@H]2C(=O)Nc2cnn(C)c2Cl)c1F [446′]
Echinochloa phyllopogon activity level (growth control rate) [1, 4]: 9
Echinochloa crusgalli activity level (growth control rate) [2, 4]: 9
Huaidao (rice cultivar) plant damage level (growth control rate) [3]: 0

Cc1cc([C@H]2CN(C)C(=O)[C@@H]2C(=O)Nc2cnn(C)c2Cl)cc(C)c1C [447′]
Echinochloa phyllopogon activity level (growth control rate) [1, 4]: 9
Echinochloa crusgalli activity level (growth control rate) [2, 4]: 9
Huaidao (rice cultivar) plant damage level (growth control rate) [3]: 0

Cc1cc([C@H]2CN(C)C(=O)[C@@H]2C(=O)Nc2cnn(C)c2C2CC2)cc(C)c1C [448′]
Echinochloa phyllopogon activity level (growth control rate) [1, 4]: 9
Echinochloa crusgalli activity level (growth control rate) [2, 4]: 9
Huaidao (rice cultivar) plant damage level (growth control rate) [3]: 0

CN1C[C@H](c2cccc3c2OC(F)(F)O3)[C@@H](C(=O)Nc2cnn(C)c2Cl)C1=O [450′]
Echinochloa phyllopogon activity level (growth control rate) [1, 4]: 9
Echinochloa crusgalli activity level (growth control rate) [2, 4]: 9
Huaidao (rice cultivar) plant damage level (growth control rate) [3]: 0

CCCn1ncc(NC(=O)[C@H]2C(=O)N(C)C[C@@H]2c2cccc(C)c2)c1Cl [462′]
Echinochloa phyllopogon activity level (growth control rate) [1, 4]: 9
Echinochloa crusgalli activity level (growth control rate) [2, 4]: 9
Huaidao (rice cultivar) plant damage level (growth control rate) [3]: 0

Cc1cccc([C@H]2CN(C)C(=O)[C@@H]2C(=O)Nc2cnn(C(F)F)c2C)c1 [465′]
Echinochloa phyllopogon activity level (growth control rate) [1, 4]: 9
Echinochloa crusgalli activity level (growth control rate) [2, 4]: 9
Huaidao (rice cultivar) plant damage level (growth control rate) [3]: 2 (Level 2: growth control rate greater than or equal to 10% and less than 20%)

C=Cc1c(NC(=O)[C@H]2C(=O)N(C)C[C@@H]2c2cccc(C)c2)cnn1C(F)F [468′]
Echinochloa phyllopogon activity level (growth control rate) [1, 4]: 9
Echinochloa crusgalli activity level (growth control rate) [2, 4]: 9
Huaidao (rice cultivar) plant damage level (growth control rate) [3]: 0

CN1C[C@H](c2cccc(C(F)(F)F)c2)[C@@H](C(=O)Nc2cnn(C)c2C(F)F)C1=O [478′]
Echinochloa phyllopogon activity level (growth control rate) [1, 4]: 9
Echinochloa crusgalli activity level (growth control rate) [2, 4]: 9
Huaidao (rice cultivar) plant damage level (growth control rate) [3]: 0

CN1C[C@H](c2cccc(C(F)(F)F)c2)[C@@H](C(=O)Nc2cnn(C)c2S(C)(=O)=O)C1=O [480′]
Echinochloa phyllopogon activity level (growth control rate) [1, 4]: 9
Echinochloa crusgalli activity level (growth control rate) [2, 4]: 9
Huaidao (rice cultivar) plant damage level (growth control rate) [3]: 1 (Level 1: growth control rate less than 10%)

COc1cccc([C@H]2CN(C)C(=O)[C@@H]2C(=O)Nc2cnn(C)c2C(F)(F)F)c1 [485′]
Echinochloa phyllopogon activity level (growth control rate) [1, 4]: 9
Echinochloa crusgalli activity level (growth control rate) [2, 4]: 9
Huaidao (rice cultivar) plant damage level (growth control rate) [3]: 0

Cc1ccc([C@H]2CN(C)C(=O)[C@@H]2C(=O)Nc2cnn(C(F)F)c2Cl)cc1 [486′]
Echinochloa phyllopogon activity level (growth control rate) [1, 4]: 9
Echinochloa crusgalli activity level (growth control rate) [2, 4]: 9
Huaidao (rice cultivar) plant damage level (growth control rate) [3]: 2 (Level 2: growth control rate greater than or equal to 10% and less than 20%)

Cc1ccc([C@H]2CN(C)C(=O)[C@@H]2C(=O)Nc2cnn(C(F)F)c2Cl)cc1C [487′]
Echinochloa phyllopogon activity level (growth control rate) [1, 4]: 9
Echinochloa crusgalli activity level (growth control rate) [2, 4]: 9
Huaidao (rice cultivar) plant damage level (growth control rate) [3]: 2 (Level 2: growth control rate greater than or equal to 10% and less than 20%)

CN1C[C@H](c2cc(F)cc(F)c2)[C@@H](C(=O)Nc2cnn(C)c2C(F)(F)F)C1=O [489′]
Echinochloa phyllopogon activity level (growth control rate) [1, 4]: 9
Echinochloa crusgalli activity level (growth control rate) [2, 4]: 9
Huaidao (rice cultivar) plant damage level (growth control rate) [3]: 0

Cc1cc(C)cc([C@H]2CN(C)C(=O)[C@@H]2C(=O)Nc2cnn(C(F)F)c2C)c1 [494′]
Echinochloa phyllopogon activity level (growth control rate) [1, 4]: 9
Echinochloa crusgalli activity level (growth control rate) [2, 4]: 9
Huaidao (rice cultivar) plant damage level (growth control rate) [3]: 2 (Level 2: growth control rate greater than or equal to 10% and less than 20%)

Cc1cc(C)cc([C@H]2CN(C)C(=O)[C@@H]2C(=O)Nc2cnn(C)c2CF)c1 [495′]
Echinochloa phyllopogon activity level (growth control rate) [1, 4]: 7 (Level 7: growth control rate greater than or equal to 80% and less than 90%)
Echinochloa crusgalli activity level (growth control rate) [2, 4]: 9
Huaidao (rice cultivar) plant damage level (growth control rate) [3]: 0

C=Cc1c(NC(=O)[C@H]2C(=O)N(C)C[C@@H]2c2cc(C)cc(C)c2)cnn1C(F)F [496′]
Echinochloa phyllopogon activity level (growth control rate) [1, 4]: 9
Echinochloa crusgalli activity level (growth control rate) [2, 4]: 9
Huaidao (rice cultivar) plant damage level (growth control rate) [3]: 0

Cc1cc(C)cc([C@H]2CN(C)C(=O)[C@@H]2C(=O)Nc2cnn(C)c2S(C)(=O)=O)c1 [498′]
Echinochloa phyllopogon activity level (growth control rate) [1, 4]: 9
Echinochloa crusgalli activity level (growth control rate) [2, 4]: 9
Huaidao (rice cultivar) plant damage level (growth control rate) [3]: 0

CO/N=C/c1c(NC(=O)[C@H]2C(=O)N(C)C[C@@H]2c2cc(C)cc(C)c2)cnn1C [501′]
Echinochloa phyllopogon activity level (growth control rate) [1, 4]: 7 (Level 7: growth control rate greater than or equal to 80% and less than 90%)
Echinochloa crusgalli activity level (growth control rate) [2, 4]: 9
Huaidao (rice cultivar) plant damage level (growth control rate) [3]: 0

Cc1cc(C)cc([C@H]2CN(C)C(=O)[C@@H]2C(=O)Nc2cnn(C)c2CO)c1 [502′]
Echinochloa phyllopogon activity level (growth control rate) [1, 4]: 7 (Level 7: growth control rate greater than or equal to 80% and less than 90%)
Echinochloa crusgalli activity level (growth control rate) [2, 4]: 9
Huaidao (rice cultivar) plant damage level (growth control rate) [3]: 0

Cc1cc(Cl)cc([C@H]2CN(C)C(=O)[C@@H]2C(=O)Nc2cnn(C(F)F)c2Cl)c1 [505′]
Echinochloa phyllopogon activity level (growth control rate) [1, 4]: 9
Echinochloa crusgalli activity level (growth control rate) [2, 4]: 9
Huaidao (rice cultivar) plant damage level (growth control rate) [3]: 2 (Level 2: growth control rate greater than or equal to 10% and less than 20%)

Cc1cc(Cl)cc([C@H]2CN(C)C(=O)[C@@H]2C(=O)Nc2cnn(C)c2C2CC2)c1 [506′]
Echinochloa phyllopogon activity level (growth control rate) [1, 4]: 9
Echinochloa crusgalli activity level (growth control rate) [2, 4]: 9
Huaidao (rice cultivar) plant damage level (growth control rate) [3]: 0

CN1C[C@H](c2cc(F)cc(Cl)c2)[C@@H](C(=O)Nc2cnn(C)c2Cl)C1=O [507′]
Echinochloa phyllopogon activity level (growth control rate) [1, 4]: 9
Echinochloa crusgalli activity level (growth control rate) [2, 4]: 9
Huaidao (rice cultivar) plant damage level (growth control rate) [3]: 0
